Peptide text beside a SMILES is read from it.
Tests used:
HSV1 = type: cell-based, Human herpes simplex virus type 1; conditions: for efficacy for reducing HSV1 infectivity (in words): Examples 2 and 3
Method in brief: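 Plaque reduction in Vero monolayers: ~100 pfu HSV1 pre-mixed 10 min at 37 °C with acetylated/amidated peptides in 0.5% FCS medium, inoculated 60–80 min, then carboxymethylcellulose overlay for 22 or 40 h. Plaques counted after fixing and carbol fuchsin staining; IC50 from % of control versus peptide concentration.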

HIV-1 = conditions: NP2 glioma cells, peptide 0.1 to 10 micromolar
Experimental: The glioma cell line NP2 over-expressing both CD4 and the appropriate co-receptor (CCR5 or CXCR4) were maintained in DMEM supplemented with 10% FCS. 2×10^4 cells were plated per well of a 48-well plate 24 h prior to infection and grown at 37 C. The cells were then washed, and incubated in DMEM/FCS containing peptide concentrations ranging from 0.1 to 10 micromolar, at 37 C for 30 minutes. 200 focus-forming units of HIV-1 stocks were then added to each well, and the cells incubated at 37 C for a further 2 hours. The cells were then washed twice in PBS and fresh medium replaced. After 3 day's growth the cells were fixed in cold methanol:acetone, and stained in situ for expression of HIV-1 p24 using a monoclonal anti-p24 followed by a secondary anti-mouse beta-galactosidase conjugate. Expression was visualised by X-Gal staining and infectious foci enumerated by light-microscopy.

HSV2 clinical isolates = type: cell-based, Human herpes simplex virus type 2
Experimental: Plaque assays were performed. The methodology was as described in previous Examples for HSV1 plaque assays (including usage of Vero cells) except HSV2 clinical isolates (provided by Prof. Anthony Hart of Liverpool University) were employed instead.

HIV-1 111B = HIV-1 111B in C8166 T-cells, syncytia and gp120 ELISA; type: cell-based, Human Immunodeficiency Virus; conditions: 5 days, read-out: IC50 for inhibiting HIV-1 growth
Experimental: Peptides (prepared as described previously) were diluted in 50 μl aliquots and mixed with T-cells (C8166) at 40,000 cells per well. Next HIV-1 111B was added at a multiplicity of infection (MOI) of 0.01, and the mixture incubated for 5 days at 37° C. Syncytia formation was assessed visually using an inverting microscope, and viral gp120 levels in supernatants assessed by a gp120 ELISA using GNA for antigen capture. 96-well plates coated with 50 ul GNA (Galanthus nivalis) were washed, then treated with 100 μl RPMI (10% foetal calf serum) and left for one hour. After further washing, 25 μl test sample supernatants were added to wells, along with dilutions of infected control samples. After lysis by 3 hr treatment with 0.5% Empigen (detergent used to lyse virus) to all wells, and washing, 50 μl of human anti-HIV sera was added, and plates incubated overnight. After further washing, 50 μl of a 1000× dilution of anti-human Ig peroxidase conjugate was added, and plates incubated at 37° C. for 90 min. After a final wash, 50 ul peroxidase substrate was added to each well, and plates incubated for 10-30 min. Reaction was stopped with 25 μl 2M H2SO4, and A450 measured.

For `CC(=O)N[C@@H](CC(C)C)C(=O)N[C@@H](CCCNC(=N)N)C(=O)N[C@@H](CCCCN)C(=O)N[C@@H](CC(C)C)C(=O)N[C@@H](CCCNC(=N)N)C(=O)N[C@@H](CCCCN)C(=O)N[C@@H](CCCNC(=N)N)C(=O)N[C@@H](CC(C)C)C(=O)N[C@@H](CC(C)C)C(=O)N[C@@H](CC(C)C)C(=O)N[C@@H](CCCNC(=N)N)C(=O)N[C@@H](CCCCN)C(=O)N[C@@H](CC(C)C)C(=O)N[C@@H](CCCNC(=N)N)C(=O)N[C@@H](CCCCN)C(=O)N[C@@H](CCCNC(=N)N)C(=O)N[C@@H](CC(C)C)C(=O)N[C@@H](CC(C)C)C(N)=O` [GIN 1p] (Ac-LRKLRKRLLLRKLRKRLL-NH2), the “efficacy for reducing HSV1 infectivity (in words)” value (HSV1) was “had anti-HSV-1 properties” and the “anti-HIV activity (in words)” value (HIV-1) was “no detectable anti-HIV activity”.
For `CC(=O)N[C@@H](Cc1c[nH]c2ccccc12)C(=O)N[C@@H](CCCNC(=N)N)C(=O)N[C@@H](CCCCN)C(=O)N[C@@H](Cc1c[nH]c2ccccc12)C(=O)N[C@@H](CCCNC(=N)N)C(=O)N[C@@H](CCCCN)C(=O)N[C@@H](CCCNC(=N)N)C(=O)N[C@@H](Cc1c[nH]c2ccccc12)C(=O)N[C@@H](CCCNC(=N)N)C(=O)N[C@@H](CCCCN)C(=O)N[C@@H](Cc1c[nH]c2ccccc12)C(=O)N[C@@H](CCCNC(=N)N)C(=O)N[C@@H](CCCCN)C(=O)N[C@@H](CCCNC(=N)N)C(N)=O` [GIN 32] (Ac-WRKWRKRWRKWRKR-NH2), the IC50 (HSV1) was 10 µM, the “efficacy for reducing HSV1 infectivity (in words)” value (HSV1) was “also had efficacy” and the IC50 (HSV2 clinical isolates) was 6.25 µM. For the same molecule, the IC50 (HIV-1 111B) was 7.5 µM.
`CC(=O)N[C@@H](Cc1c[nH]c2ccccc12)C(=O)N[C@@H](CCCNC(=N)N)C(=O)N[C@@H](CCCCN)C(=O)N[C@@H](Cc1c[nH]c2ccccc12)C(=O)N[C@@H](CCCNC(=N)N)C(=O)N[C@@H](CCCCN)C(=O)N[C@@H](CCCNC(=N)N)C(=O)N[C@@H](Cc1c[nH]c2ccccc12)C(=O)N[C@@H](Cc1c[nH]c2ccccc12)C(=O)N[C@@H](CCCNC(=N)N)C(=O)N[C@@H](Cc1c[nH]c2ccccc12)C(=O)N[C@@H](CCCNC(=N)N)C(=O)N[C@@H](CCCCN)C(=O)N[C@@H](Cc1c[nH]c2ccccc12)C(=O)N[C@@H](CCCNC(=N)N)C(=O)N[C@@H](CCCCN)C(=O)N[C@@H](CCCNC(=N)N)C(=O)N[C@@H](Cc1c[nH]c2ccccc12)C(=O)N[C@@H](Cc1c[nH]c2ccccc12)C(=O)N[C@@H](CCCNC(=N)N)C(N)=O` [MU 83] (Ac-WRKWRKRWWRWRKWRKRWWR-NH2) was tested, and the IC50 (HSV1) was 2.5 µM and the IC50 (HSV2 clinical isolates) was < 3.3 µM.
Molecule `CC(=O)N[C@@H](CC(C)C)C(=O)N[C@@H](CCCNC(=N)N)C(=O)N[C@@H](CCCCN)C(=O)N[C@@H](CC(C)C)C(=O)N[C@@H](CCCNC(=N)N)C(=O)N[C@@H](CCCCN)C(=O)N[C@@H](CCCNC(=N)N)C(=O)N[C@@H](CC(C)C)C(=O)N[C@@H](CC(C)C)C(=O)N[C@@H](Cc1c[nH]c2ccccc12)C(=O)N[C@@H](CCCNC(=N)N)C(=O)N[C@@H](CCCCN)C(=O)N[C@@H](Cc1c[nH]c2ccccc12)C(=O)N[C@@H](CCCNC(=N)N)C(=O)N[C@@H](CCCCN)C(=O)N[C@@H](CCCNC(=N)N)C(=O)N[C@@H](Cc1c[nH]c2ccccc12)C(=O)N[C@@H](Cc1c[nH]c2ccccc12)C(N)=O` [MU 111] (Ac-LRKLRKRLLWRKWRKRWW-NH2) has an IC50 (HSV1) of 12.5 µM and an IC50 (HSV2 clinical isolates) of 6.5 µM.
For `CC(=O)N[C@@H](CC(C)C)C(=O)N[C@@H](CCCNC(=N)N)C(=O)N[C@@H](CCCCN)C(=O)N[C@@H](CC(C)C)C(=O)N[C@@H](CCCNC(=N)N)C(=O)N[C@@H](CCCCN)C(=O)N[C@@H](CCCNC(=N)N)C(=O)N[C@@H](CC(C)C)C(=O)N[C@@H](CC(C)C)C(=O)N[C@@H](CC(C)C)C(=O)N[C@@H](CCCNC(=N)N)C(=O)N[C@@H](CCCCN)C(=O)N[C@@H](CC(C)C)C(=O)N[C@@H](CCCNC(=N)N)C(=O)N[C@@H](CCCCN)C(=O)N[C@@H](CCCNC(=N)N)C(=O)N[C@@H](Cc1c[nH]c2ccccc12)C(=O)N[C@@H](Cc1c[nH]c2ccccc12)C(N)=O` [MU 112] (Ac-LRKLRKRLLLRKLRKRWW-NH2), the IC50 (HSV1) was > 20 µM and the IC50 (HSV2 clinical isolates) was 16 µM.
`CC(=O)N[C@@H](CC(C)C)C(=O)N[C@@H](CCCNC(=N)N)C(=O)N[C@@H](CCCCN)C(=O)N[C@@H](CC(C)C)C(=O)N[C@@H](CCCNC(=N)N)C(=O)N[C@@H](CCCCN)C(=O)N[C@@H](CCCNC(=N)N)C(=O)N[C@@H](CC(C)C)C(=O)N[C@@H](CC(C)C)C(=O)N[C@@H](Cc1c[nH]c2ccccc12)C(=O)N[C@@H](CCCNC(=N)N)C(=O)N[C@@H](CCCCN)C(=O)N[C@@H](Cc1c[nH]c2ccccc12)C(=O)N[C@@H](CCCNC(=N)N)C(=O)N[C@@H](CCCCN)C(=O)N[C@@H](CCCNC(=N)N)C(=O)N[C@@H](CC(C)C)C(=O)N[C@@H](CC(C)C)C(N)=O` [MU 113] (Ac-LRKLRKRLLWRKWRKRLL-NH2) showed an IC50 (HSV1) of 18.5 µM and an IC50 (HSV2 clinical isolates) of 11.8 µM.
`CC(=O)N[C@@H](Cc1c[nH]c2ccccc12)C(=O)N[C@@H](CCCNC(=N)N)C(=O)N[C@@H](CCCCN)C(=O)N[C@@H](Cc1c[nH]c2ccccc12)C(=O)N[C@@H](CCCNC(=N)N)C(=O)N[C@@H](CCCCN)C(=O)N[C@@H](CCCNC(=N)N)C(=O)N[C@@H](CC(C)C)C(=O)N[C@@H](CC(C)C)C(=O)N[C@@H](CC(C)C)C(=O)N[C@@H](CCCNC(=N)N)C(=O)N[C@@H](CCCCN)C(=O)N[C@@H](CC(C)C)C(=O)N[C@@H](CCCNC(=N)N)C(=O)N[C@@H](CCCCN)C(=O)N[C@@H](CCCNC(=N)N)C(=O)N[C@@H](CC(C)C)C(=O)N[C@@H](CC(C)C)C(N)=O` [MU 114] (Ac-WRKWRKRLLLRKLRKRLL-NH2) gave an IC50 (HSV1) of 16 µM and an IC50 (HSV2 clinical isolates) of 9 µM.

From US7691382B2, “Antiviral polypeptides comprising tandem repeats of APOE 141-149 and variants thereof” (priority 2003, dated 2010)
